Results published in paper PMC7099625, “Exploration of thiaheterocyclic hHDAC6 inhibitors as potential antiplasmodial agents” (Future Medicinal Chemistry, 2017).
Where two headings read alike, the source gives them in different places.

Assays:
[1] = test system: Chinese Hamster Ovary (CHO) cells; assay: MTT in vitro cytotoxicity assay; format: cell-based; details: triplicate on one occasion
Description: Test samples were screened for in vitro cytotoxicity against a mammalian cell-line, Chinese Hamster Ovary (CHO), using the 3-(4,5-dimethylthiazol-2-yl)-2,5-diphenyltetrazoliumbromide (MTT)-assay. The MTT-assay is used as a colorimetric assay for cellular growth and survival, and compares well with other available assays. The tetrazolium salt MTT was used to measure all growth and chemosensitivity. The test samples were tested in triplicate on one occasion. The same stock solutions prepared for antiplasmodial evaluation were used for cytotoxicity testing. Test compounds were stored at -20°C until use. Dilutions were prepared on the day of the experiment. Emetine was used as the reference drug in all experiments. The starting concentration was 100 μg/ml, which was serially diluted in complete medium with tenfold dilutions to give six concentrations, the lowest being 0.001 μg/ml. […] The IC50 values were obtained from full dose–response curves, using a nonlinear dose–response curve fitting analysis via GraphPad Prism v.4 software. […]

P. falciparum (NF54) = assay: Antiplasmodial parasite lactate dehydrogenase assay, chloroquine-sensitive strain NF54; format: cell-based, Plasmodium falciparum; details: read-out: IC50 NF54
Description: (§1) Continuous in vitro cultures of asexual erythrocyte stages of P. falciparum were maintained using a modified method of Trager and Jensen. Quantitative assessment of antiplasmodial activity in vitro was determined via the parasite lactate dehydrogenase assay using a modified method described by Makler. The test samples were prepared to a 20 mg/ml stock solution in 100% DMSO. Stock solutions were stored at -20°C. Further dilutions were prepared in complete medium on the day of the experiment. CQ and artesunate were used as the reference drugs. A full dose–response was performed to determine the concentration inhibiting 50% of parasite growth (IC50 value). Test samples were tested at a starting concentration of 100 μg/ml, which was then serially diluted twofold in complete medium to give 10 concentrations; with the lowest concentration being 0.2 μg/ml. The same dilution technique was used for all samples. References were tested at a starting concentration of 1 μg/ml.
(§2) The antiplasmodial activity of this set of structures was first determined through a modified parasite lactate dehydrogenase assay against a CQ-sensitive (CQS) strain of P. falciparum (NF54). […] Finally, a selectivity index (SI = IC50 CHO/IC50 NF54) and a resistance index (RI = IC50 Dd2/IC50 NF54) was calculated to be able to easily compare the therapeutic window (active concentration vs toxic concentration) and sensitivity toward resistance developing.

hHDAC6 = test system: hHDAC6; parameters: method as in PMID 23538448, PMID 25994553, PMID 26822143, PMID 27717044; details: hHDAC6 inhibition, previously described; read-out: IC50 HDAC6; cited from earlier work
P. falciparum (Dd2) = assay: Antiplasmodial parasite lactate dehydrogenase assay, chloroquine-resistant strain Dd2; format: cell-based, Plasmodium falciparum; details: read-out: IC50 Dd2
Description: as §1, §2

[2] = chloroquine-sensitive (CQS) P. falciparum strain NF54, asexual erythrocyte stages, pLDH assay
[3] = chloroquine-resistant (CQR) P. falciparum strain Dd2, asexual erythrocyte stages, pLDH assay

In the case of `O=C(NO)c1ccc(CN2c3ccccc3SCC3CCCCC32)cc1` (stereo not shown) [Compound 3j], the IC50 [1] is given as 61.7 µM, the IC50 (P. falciparum (NF54); [2]) is given as greater than 2.61 µM and the IC50 (hHDAC6) is given as 0.092 µM. For the same compound, the IC50 (P. falciparum (Dd2); [3]) was greater than 2.61 µM.
For `O=C(NO)c1ccc(CN2c3ccccc3SCC3CCCCC32)cc1` (stereo not shown) [Compound 3h], the IC50 [1] is listed as 87 µM, the IC50 (P. falciparum (NF54); [2]) is listed as greater than 2.61 µM and the IC50 (hHDAC6) is listed as 0.033 µM. The IC50 (P. falciparum (Dd2); [3]) was greater than 2.61 µM.
With `CCN(CC)CCCC(C)Nc1ccnc2cc(Cl)ccc12` (stereo not shown) [Chloroquine, chloroquine, reference compound] the IC50 (P. falciparum (NF54); Plasmodium falciparum, NF54, Erythrocyte) was 0.01 µM and the IC50 (P. falciparum (Dd2); Plasmodium falciparum, DD2, Erythrocyte) was 0.175 µM.
For `O=C(NO)c1cccc(Cn2c3c(c4cc(-c5ccccc5)ccc42)CS(=O)(=O)CC3)c1` [Compound 1r], the IC50 (P. falciparum (NF54); [2]) was 8.13 µM.
With `CC[C@H]1CN2CCc3cc(OC)c(OC)cc3[C@@H]2C[C@@H]1C[C@H]1NCCc2cc(OC)c(OC)cc21` [Emetine, reference compound] the IC50 ([1]; Cricetulus griseus) was 0.112 µM.
For `O=C(NO)c1ccc(CN2c3cc(C(F)(F)F)ccc3SCC3CCCC32)cc1` (racemic) [Compound 3c], the IC50 [1] is listed as 61.5 µM, the IC50 (P. falciparum (NF54); [2]) is listed as 1.53 µM and the IC50 (hHDAC6) is listed as 0.2 µM. The IC50 (P. falciparum (Dd2); [3]) was greater than 2.29 µM.
In the case of `O=C(NO)c1ccc(CN2c3ccccc3[S+]([O-])CC3CCCC32)cc1` (stereo not shown) [Compound 3g], the IC50 [1] is given as 173 µM, the IC50 (P. falciparum (NF54); [2]) is given as 1.25 µM and the IC50 (hHDAC6) is given as 0.006 µM. It also gave an IC50 (P. falciparum (Dd2); [3]) greater than 2.6 µM.
For `O=C(NO)c1ccc(CN2c3ccccc3SCC3CCCC32)cc1` (stereo not shown) [Compound 3a], the IC50 [1] is listed as 104 µM, the IC50 (P. falciparum (NF54); [2]) is listed as 1.59 µM and the IC50 (hHDAC6) is listed as 0.036 µM. For the same compound, the IC50 (P. falciparum (Dd2); [3]) was greater than 2.7 µM.
`O=C(NO)c1ccc(N(Cc2ccccc2)Cc2csc3cc(Br)ccc23)cc1` [Compound 2h] gave an IC50 (P. falciparum (NF54); [2]) of 8.45 µM.
In the case of `O=C(NO)c1ccc(Cn2c3c(c4cc(F)ccc42)CS(=O)(=O)CC3)cc1` [Compound 1g], the IC50 (P. falciparum (NF54); [2]) is listed as 15.8 µM and the IC50 (hHDAC6) is listed as 0.004 µM.
In the case of `COc1cc(C(=O)NO)ccc1Cn1c2c(c3ccccc31)CS(=O)(=O)CC2` [Compound 1f], the IC50 (P. falciparum (NF54); [2]) is given as 21 µM and the IC50 (hHDAC6) is given as 2 µM.
For `O=C(NO)c1ccc(Cn2c3c(c4cc(Br)ccc42)CS(=O)(=O)CC3)cc1` [Compound 1i], the IC50 [1] was 109 µM.
For `O=C(NO)c1ccc(NCc2csc3ccc(Br)cc23)cc1` [Compound 2c], the IC50 [1] is given as 31 µM, the IC50 (P. falciparum (NF54); [2]) is given as 1.02 µM and the IC50 (hHDAC6) is given as 0.037 µM. For the same compound, the IC50 (P. falciparum (Dd2); [3]) was 2.4 µM.
In the case of `O=C(NO)c1ccc(CN2c3cc(Cl)ccc3SCC3CCCC32)cc1` (racemic) [Compound 3i], the IC50 [1] is listed as 50.9 µM, the IC50 (P. falciparum (NF54); [2]) is listed as greater than 2.48 µM and the IC50 (hHDAC6) is listed as 0.16 µM. It also gave an IC50 (P. falciparum (Dd2); [3]) of 1.57 µM.
In the case of `O=C(NO)c1ccc(Cn2c3c(c4ccccc42)C[S+]([O-])CC3)cc1` (racemic) [Compound 1j], the IC50 [1] is given as greater than 282 µM, the IC50 (P. falciparum (NF54); [2]) is given as 1.28 µM and the IC50 (hHDAC6) is given as 0.014 µM. For the same compound, the IC50 (P. falciparum (Dd2); [3]) was 1.3 µM.
Work on `O=C(NO)c1ccc(NCc2csc3ccc(-c4ccccc4)cc23)cc1` [Compound 2e] yielded an IC50 (P. falciparum (NF54); [2]) of 5.07 µM.
With `O=C(NO)c1ccc(CN2c3cc(C(F)(F)F)ccc3S(=O)(=O)CC3CCCC32)cc1` (racemic) [Compound 3f] the IC50 [1] was 56.8 µM, the IC50 (P. falciparum (NF54); [2]) was 0.87 µM and the IC50 (P. falciparum (Dd2); [3]) was 0.7 µM.
With `O=C(NO)c1cccc(Cn2c3c(c4ccccc42)CS(=O)(=O)CC3)c1` [Compound 1p] the IC50 (P. falciparum (NF54); [2]) was 5.45 µM.
`COc1cc(C(=O)NO)ccc1Cn1c2c(c3cc(F)ccc31)CSCC2` [Compound 1d] gave an IC50 (P. falciparum (NF54); [2]) of 23.2 µM.
In the case of `O=C(NO)c1ccc(Cn2c3c(c4cc(F)ccc42)C[S+]([O-])CC3)cc1` (racemic) [Compound 1k], the IC50 [1] is reported as greater than 269 µM and the IC50 (P. falciparum (Dd2); [3]) is reported as 0.8 µM.
In the case of `O=C(NO)c1ccc(Cn2c3c(c4ccccc42)CSCC3)cc1` [Compound 1a], the IC50 (P. falciparum (NF54); [2]) is given as 37.5 µM and the IC50 (hHDAC6) is given as 0.015 µM.
Compound `O=C(NO)c1ccc(N(Cc2ccccc2)Cc2csc3ccc(-c4ccccc4)cc23)cc1` [Compound 2f] has an IC50 (P. falciparum (NF54); [2]) of 5.75 µM.
Compound `Cc1cc(C(=O)NO)ccc1NCc1csc2ccccc12` [Compound 2k] has an IC50 (P. falciparum (NF54); [2]) of 36.8 µM.
In the case of `O=C(NO)c1ccc(CN2c3cc(Cl)ccc3S(=O)(=O)CC3CCCC32)cc1` (racemic) [Compound 3e], the IC50 [1] is listed as 35.4 µM and the IC50 (hHDAC6) is listed as 0.068 µM.
With `O=C(NO)c1ccc(NCc2csc3cc(-c4ccccc4)ccc23)cc1` [Compound 2i] the IC50 [1] was 31.2 µM, the IC50 (P. falciparum (NF54); [2]) was 3.34 µM and the IC50 (P. falciparum (Dd2); [3]) was 1.14 µM.
With `O=C(NO)c1cccc(Cn2c3c(c4cc(F)ccc42)CS(=O)(=O)CC3)c1` [Compound 1q] the IC50 (P. falciparum (NF54); [2]) was 7.84 µM.
Compound `COc1cc(C(=O)NO)ccc1Cn1c2c(c3ccccc31)CSCC2` [Compound 1b] has an IC50 (P. falciparum (NF54); [2]) of 14 µM.
With `C[C@H]1[C@H](OC(=O)CCC(=O)O)O[C@@H]2O[C@@]3(C)CC[C@H]4[C@H](C)CC[C@@H]1[C@@]24OO3` [Artesunate, artesunate, reference compound] the IC50 (P. falciparum (NF54); Plasmodium falciparum, chloroquine-sensitive (CQS) P. falciparum strain NF54, asexual erythrocyte stages, pLDH assay) was less than 0.01 µM and the IC50 (P. falciparum (Dd2); Plasmodium falciparum, chloroquine-resistant (CQR) P. falciparum strain Dd2, asexual erythrocyte stages, pLDH assay) was 0.016 µM.
With `O=C(NO)c1ccc(N(Cc2ccccc2)Cc2csc3cc(-c4ccccc4)ccc23)cc1` [Compound 2j] the IC50 (P. falciparum (NF54); [2]) was 5.02 µM.
For `O=C(NO)c1ccc(N(Cc2ccccc2)Cc2csc3ccc(Br)cc23)cc1` [Compound 2d], the IC50 (P. falciparum (NF54); [2]) was 17.8 µM.
In the case of `O=C(NO)c1ccc(NCc2csc3cc(Br)ccc23)cc1` [Compound 2g], the IC50 [1] is listed as 46.1 µM, the IC50 (P. falciparum (NF54); [2]) is listed as 1.3 µM and the IC50 (hHDAC6) is listed as 0.064 µM. For the same compound, the IC50 (P. falciparum (Dd2); [3]) was 1.58 µM.
For `O=C(NO)c1ccc(CN2c3cc(Cl)ccc3SCC3CCCC32)cc1` (racemic) [Compound 3b], the IC50 [1] is given as 41.4 µM, the IC50 (P. falciparum (NF54); [2]) is given as greater than 2.48 µM and the IC50 (hHDAC6) is given as 0.65 µM. The IC50 (P. falciparum (Dd2); [3]) was greater than 2.48 µM.
For `O=C(NO)c1ccc(Cn2c3c(c4cc(F)ccc42)CSCC3)cc1` [Compound 1c], the IC50 [1] is given as 105 µM, the IC50 (P. falciparum (NF54); [2]) is given as 2.2 µM and the IC50 (hHDAC6) is given as 0.022 µM. It also gave an IC50 (P. falciparum (Dd2); [3]) of 3.1 µM.
`O=C(NO)c1cccc(Cn2c3c(c4cc(F)ccc42)CSCC3)c1` [Compound 1o] showed an IC50 [1] of 48.1 µM, an IC50 (P. falciparum (NF54); [2]) of 1.32 µM and an IC50 (P. falciparum (Dd2); [3]) of 1.44 µM.
Compound `O=C(NO)c1ccc(N(Cc2ccccc2)Cc2csc3ccccc23)cc1` [Compound 2b] has an IC50 (P. falciparum (NF54); [2]) of 32.4 µM.
Work on `O=C(NO)c1ccc(CN2c3ccccc3S(=O)(=O)CC3CCCC32)cc1` (stereo not shown) [Compound 3d] yielded an IC50 [1] of 108 µM and an IC50 (P. falciparum (Dd2); [3]) of 0.94 µM.
In the case of `O=C(NO)c1ccc(Cn2c3c(c4ccccc42)CS(=O)(=O)CC3)cc1` [Compound 1e], the IC50 (P. falciparum (NF54); [2]) is given as 10.8 µM and the IC50 (hHDAC6) is given as 0.002 µM.
In the case of `COc1cc(C(=O)NO)ccc1Cn1c2c(c3cc(F)ccc31)CS(=O)(=O)CC2` [Compound 1h], the IC50 (P. falciparum (NF54); [2]) is given as 32.7 µM and the IC50 (hHDAC6) is given as 1.3 µM.
In the case of `O=C(NO)c1ccc(NCc2csc3ccccc23)cc1` [Compound 2a], the IC50 [1] is listed as 12.7 µM, the IC50 (P. falciparum (NF54); [2]) is listed as 1.6 µM and the IC50 (hHDAC6) is listed as 0.014 µM. The IC50 (P. falciparum (Dd2); [3]) was 2.13 µM.
With `O=C(NO)c1cccc(Cn2c3c(c4ccccc42)CSCC3)c1` [Compound 1n] the IC50 [1] was greater than 295 µM, the IC50 (P. falciparum (NF54); [2]) was 1.48 µM and the IC50 (P. falciparum (Dd2); [3]) was 2.18 µM.
